Laboratory results taken from patent publication US20250339461A1 (priority 2024, published 2025).
Entries after “also recorded” stand apart in the source; their conditions may differ.

Tests used:
migraine headache = settings: human, in vivo
[1] = human, in vivo
nausea = settings: human, in vivo
neuropathic facial pain = system: neuropathic facial pain; design: species or system human; settings: in vivo

**Q.** For `C[C@@H]1[C@H](c2ccccc2)C[C@H](NC(=O)c2cnc3c(c2)C[C@@]2(C3)C(=O)Nc3ncccc32)C(=O)N1CC(F)(F)F` [Ubrelvy], which benefit for rescue (migraine headache) is on record?
**A.** not helpful

**Q.** With `CN(C)CCC=C1c2ccccc2CCc2ccccc21` [amitriptyline] as the molecule, how does the “benefit as prophylactic agent for migraines” value (“benefit as prophylactic agent” for short) (migraine headache) read?
**A.** without benefit

**Q.** With `NCC(CC(=O)O)c1ccc(Cl)cc1` (centres unmarked) [baclofen] as the molecule, how does the “benefit as prophylactic agent” value (migraine headache) read?
**A.** without benefit

**Q.** And the “benefit for migraine prophylaxis, history at first visit” value (shortened to “benefit … at first visit”) (migraine headache)?
**A.** no benefit

**Q.** What about the “benefit from previous treatment” value (migraine headache) of the same molecule?
**A.** no benefit

**Q.** Which “pain after local anesthetic injection along superior nuchal line” value (migraine headache) does the source give for `CCCCN1CCCCC1C(=O)Nc1c(C)cccc1C` (centres unmarked) [bupivacaine] here?
**A.** substantially improved for two days

**Q.** For `Oc1ccc2c(c1)[C@@]13CCCC[C@@]1(O)[C@@H](C2)N(CC1CCC1)CC3` [butorphanol], which benefit for rescue (migraine headache) is on record?
**A.** without benefit

**Q.** Which “benefit as prophylactic agent” value (migraine headache) does the source give for `NC(=O)N1c2ccccc2C=Cc2ccccc21` [carbamazepine] here?
**A.** without benefit

**Q.** Which results are given for `COC1=C(OC)C(=O)C(C/C=C(\C)CC/C=C(\C)CC/C=C(\C)CC/C=C(\C)CC/C=C(\C)CC/C=C(\C)CC/C=C(\C)CC/C=C(\C)CC/C=C(\C)CCC=C(C)C)=C(C)C1=O` [coenzyme Q10]?
**A.** benefit as prophylactic agent for migraines (migraine headache): without benefit; benefit for prophylaxis (migraine headache): no benefit; effect on frequency of headaches after 4-6 weeks (migraine headache): did not affect the frequency

**Q.** For `O=C(O)Cc1ccccc1Nc1c(Cl)cccc1Cl` [diclofenac], which benefit for rescue (migraine headache) is on record?
**A.** without benefit

**Q.** For `CN1CCC[C@@H]1Cc1c[nH]c2ccc(CCS(=O)(=O)c3ccccc3)cc12` [eletriptan], which benefit for rescue (migraine headache) is on record?
**A.** consistently effective

**Q.** With `NCC1(CC(=O)O)CCCCC1` [gabapentin] as the molecule, how does the “benefit as prophylactic agent” value (migraine headache) read?
**A.** without benefit

**Q.** And the “benefit … at first visit” value (migraine headache)?
**A.** no benefit

**Q.** What about the “benefit from previous treatment” value (migraine headache) of the same molecule?
**A.** no benefit

**Q.** With `CC(C)Cc1ccc(C(C)C(=O)O)cc1` (centres unmarked) [ibuprofen] as the molecule, how does the “benefit from previous treatment” value (migraine headache) read?
**A.** no benefit

**Q.** With `CCCCc1nc(Cl)c(CO)n1Cc1ccc(-c2ccccc2-c2nn[nH]n2)cc1` [losartan] as the molecule, how does the “benefit … at first visit” value (migraine headache) read?
**A.** no benefit

**Q.** For `CCN(CC)CCNC(=O)c1cc(Cl)c(N)cc1OC` [metoclopramide], which tolerability [1] is on record?
**A.** intolerant

**Q.** With `Cc1nccn1CC1CCc2c(c3ccccc3n2C)C1=O` (centres unmarked) [ondansetron] as the molecule, how does the effect on nausea (nausea) read?
**A.** at times helpful for nausea

**Q.** For `C[C@]12C=CC(=O)C=C1CC[C@@H]1[C@@H]2C(=O)C[C@@]2(C)[C@H]1CC[C@]2(O)C(=O)CO` [prednisone], which “benefit as prophylactic agent” value (migraine headache) is on record?
**A.** without benefit

**Q.** With `CC(C)C[C@H](CN)CC(=O)O` [pregabalin] as the molecule, how does the “effect on comorbid neuropathic facial pain” value (neuropathic facial pain) read?
**A.** treated effectively

**Q.** What about the “benefit as prophylactic agent” value (migraine headache) of the same molecule?
**A.** without benefit

**Q.** What does the source list for `CC(C)NCC(O)COc1cccc2ccccc12` (centres unmarked) [propranolol]?
**A.** tolerability [1]: caused dizziness; benefit as prophylactic agent for migraines (migraine headache): without benefit; benefit from previous treatment (migraine headache): no benefit

**Q.** With `Cc1cc2nc3c(=O)[nH]c(=O)nc-3n(C[C@H](O)[C@H](O)[C@H](O)CO)c2cc1C` [riboflavin] as the molecule, how does the “effect on frequency of headaches after 4-6 weeks” value (migraine headache) read?
**A.** did not affect the frequency

**Q.** With `CN(C)CCc1c[nH]c2ccc(Cn3cncn3)cc12` [rizatriptan] as the molecule, how does the “adverse effect when tried for rescue” value [1] read?
**A.** severe elevation in their blood pressure

**Q.** What about the benefit for rescue (migraine headache) of the same molecule?
**A.** no longer effective

**Q.** And the “share of the time it worked for rescue” value (migraine headache)?
**A.** approximately 20 % of the time

**Q.** With `CNS(=O)(=O)Cc1ccc2[nH]cc(CCN(C)C)c2c1` [sumatriptan tablet, sumatriptan] as the molecule, how does the benefit for rescue (migraine headache) read?
**A.** not helpful; also recorded: partially helpful; also recorded: without benefit

**Q.** With `Clc1ccc2nsnc2c1NC1=NCCN1` [tizanidine] as the molecule, how does the “benefit as prophylactic agent” value (migraine headache) read?
**A.** without benefit

**Q.** And the benefit for prophylaxis (migraine headache)?
**A.** partially helpful

**Q.** Which tolerability [1] does the source give for `CC1(C)O[C@@H]2[C@@H](CO[C@@]3(COS(N)(=O)=O)OC(C)(C)O[C@@H]23)O1` [topiramate] here?
**A.** could not tolerate the side effects

**Q.** What about the “benefit as prophylactic agent” value (migraine headache) of the same molecule?
**A.** without benefit

**Q.** And the “benefit for migraine prophylaxis” value (migraine headache)?
**A.** helped some

**Q.** What about the “benefit … at first visit” value (migraine headache) of the same molecule?
**A.** no benefit

**Q.** What about the “frequency of severe migraine headaches on treatment” value (migraine headache) of the same molecule?
**A.** 5 to 7 days a week

**Q.** Which benefit for rescue (migraine headache) does the source give for `COc1cccc(C2(O)CCCCC2CN(C)C)c1` (centres unmarked) [tramadol] here?
**A.** partially helpful; also recorded: without benefit

**Q.** With `CCCC(CCC)C(=O)O` [valproic acid] as the molecule, how does the “benefit as prophylactic agent” value (migraine headache) read?
**A.** without benefit

**Q.** Which benefit for rescue (migraine headache) does the source give for `CN(C)CCc1c[nH]c2ccc(C[C@H]3COC(=O)N3)cc12` [zolmitriptan nasal spray, zolmitriptan] here?
**A.** without benefit

**Q.** For `NS(=O)(=O)Cc1noc2ccccc12` [zonisamide], which “benefit as prophylactic agent” value (migraine headache) is on record?
**A.** without benefit

B1: Emgality: prophylactic agent prescribed for chronic migraine (antibody, chains of the INN, looked up, V domains shown)
VH: QVQLVQSGAEVKKPGSSVKVSCKASGYTFGNYWMQWVRQAPGQGLEWMGAIYEGTGKTVYIQKFADRVTITADKSTSTAYMELSSLRSEDTAVYYCARLSDYVSGFGYWGQGTTVTVSS
VL: DIQMTQSPSSLSASVGDRVTITCRASKDISKYLNWYQQKPGKAPKLLIYYTSGYHSGVPSRFSGSGSGTDFTLTISSLQPEDFATYYCQQGDALPPTFGGGTKVEIK
**Q.** For B1, which side effects [1] is on record?
**A.** caused unwanted side effects

**Q.** And the “benefit as prophylactic agent” value (migraine headache)?
**A.** without benefit

**Q.** And the “benefit for migraine prophylaxis” value (migraine headache)?
**A.** significantly improved

**Q.** And the “benefit … at first visit” value (migraine headache)?
**A.** had not noticed any obvious benefit

**Q.** And the “benefit for migraine, subsequent treatment rounds” value (migraine headache)?
**A.** reduced the pain somewhat, but had not reduced the frequency or duration

**Q.** What about the “frequency of headaches with throbbing, light and sound sensitivity” value (migraine headache) of the same molecule?
**A.** once or twice per week

**Q.** What about the “migraine frequency on treatment” value (migraine headache) of the same molecule?
**A.** 2 to 3 days/week

B2: Ajovy: prophylactic agent tried for migraines (antibody, chains of the INN, looked up, V domains shown)
VH: EVQLVESGGGLVQPGGSLRLSCAASGFTFSNYWISWVRQAPGKGLEWVAEIRSESDASATHYAEAVKGRFTISRDNAKNSLYLQMNSLRAEDTAVYYCLAYFDYGLAIQNYWGQGTLVTVSS
VL: EIVLTQSPATLSLSPGERATLSCKASKRVTTYVSWYQQKPGQAPRLLIYGASNRYLGIPARFSGSGSGTDFTLTISSLEPEDFAVYYCSQSYNYPYTFGQGTKLEIK
**Q.** With B2 as the molecule, how does the “benefit as prophylactic agent” value (migraine headache) read?
**A.** without benefit
